Source: paper PMC8795197, “Safety and activity of WX-0593 (Iruplinalkib) in patients with ALK- or ROS1-rearranged advanced non-small cell lung cancer: a phase 1 dose-escalation and dose-expansion trial” (Signal Transduction and Targeted Therapy, 2022)
Entries after “also recorded” stand apart in the source; their conditions may differ. Read-outs that look alike come from different tables or passages of the source.

How the values were obtained:
[1] = tested on: ALK+ human lung cancer LU-01-0319 xenograft; assay: PDX model, anti-tumor activity; type: in vivo
Procedure: (§1) The anti-tumor activity of WX-0593 was evaluated in two PDX models. […] WX-0593 was well-tolerated at all concentrations.

[2] = tested on: ALK+ human lung cancer LU-01-0015 xenograft; assay: PDX model, anti-tumor activity; type: in vivo
Procedure: as §1

op-kappa = op-kappa (Homo sapiens, UniProt P41145); assay: GPCR antagonist screening assay; type: cell-based
Sequence of op-kappa (P41145 whole entry): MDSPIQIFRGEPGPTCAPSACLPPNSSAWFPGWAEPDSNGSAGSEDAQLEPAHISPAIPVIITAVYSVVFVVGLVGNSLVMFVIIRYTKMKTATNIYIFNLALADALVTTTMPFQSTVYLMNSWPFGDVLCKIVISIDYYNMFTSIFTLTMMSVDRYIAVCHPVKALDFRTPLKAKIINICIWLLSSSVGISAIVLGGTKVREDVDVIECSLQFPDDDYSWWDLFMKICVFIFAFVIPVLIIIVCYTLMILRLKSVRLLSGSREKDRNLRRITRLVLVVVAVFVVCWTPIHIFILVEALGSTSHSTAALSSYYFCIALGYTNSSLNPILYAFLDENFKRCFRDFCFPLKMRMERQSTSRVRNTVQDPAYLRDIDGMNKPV

[3] = tested on: remaining 17 GPCR targets; assay: GPCR antagonist screening assay; type: cell-based; conditions: highest dose detected
[4] = Single-dose toxicity study (acute toxicity)
[5] = tested on: NCI-H1975 (EGFR mutant L858R/T790M); assay: Cell proliferation inhibition assay; type: cell-based
[6] = Metabolic stability in liver microsomes; type: in vitro ADME; conditions: for half-life: read-out: elimination half-life
Description: The objective of this study is to evaluate the metabolic stability of tested drug WX-0593 in CD-1 mice, SD rats, beagles, cynomolgus monkeys, and human liver microsomes.

in vivo = conditions: cynomolgus monkey, po; for AUC(0-t) / Cmax: 50 mg/kg
[7] = Tissue distribution of total radioactivity after [14C]WX-0593; type: in vivo, SD rats
Procedure: At 0.5 h after drug administration, the total radioactivity was mainly distributed in the gastrointestinal tract, liver, oesophagus, and adrenal glands. […] The distribution of total radioactivity in other tissues in descending order was lungs, kidneys, spleen, pancreas, lymph nodes, heart, uterus and ovaries, plasma, thymus, prostate, whole blood, skeletal muscles, skin, testis and epididymis, and whole brain. […] Only the total radioactivity of skeletal muscles (1417 ng Eq./g), whole blood (1366 ng Eq./g), body fat (1079 ng Eq./g), testis and epididymis (619 ng Eq./g), and whole brain (114 ng Eq./g) were lower than that of plasma at the same time point. […] At the last sampling time point (72 h), most total radioactivity had been cleared from the body and only the spleen, adrenal glands, liver, testis and epididymis, kidneys, lymph nodes, uterus and ovaries, intestinal wall, lungs, and thymus had been traced small amount of radioactivity.

[8] = Absorption study (IV and oral PK); type: in vivo, cynomolgus monkeys; conditions: for bioavailability: read-out: absolute bioavailability
Procedure: Rats and cynomolgus monkeys were selected for the absorption studies based on the "Guidance on the non-clinical pharmacokinetics of medicinal products" (CFDA, 2014) and the in vitro study of species differences in liver microsomes and hepatocyte metabolism.
In general, within the range of 0.5 mg/kg–8 mg/kg, the systemic exposure in male cynomolgus monkeys increased proportionately with the dose, while increased slightly faster than the dose in female cynomolgus monkeys.

[9] = Excretion and mass balance after [14C]WX-0593, bile-duct cannulation (BDC); type: in vivo; conditions: 0-72 hours, BDC rats
Ba/F3 (EML4-ALK-L1196M) = assay: Cell proliferation inhibition assay; type: cell-based
[10] = Single-dose toxicity study (acute toxicity); remark: listed apart in the source
EGFR L858R/T790M = EGFR L858R/T790M (Homo sapiens, UniProt P00533, L858R/T790M); assay: In vitro enzyme inhibition study; type: biochemical; conditions: difference in inhibitory activity within 3 times
Sequence of EGFR L858R/T790M (P00533 25-1210 T790M/L858R): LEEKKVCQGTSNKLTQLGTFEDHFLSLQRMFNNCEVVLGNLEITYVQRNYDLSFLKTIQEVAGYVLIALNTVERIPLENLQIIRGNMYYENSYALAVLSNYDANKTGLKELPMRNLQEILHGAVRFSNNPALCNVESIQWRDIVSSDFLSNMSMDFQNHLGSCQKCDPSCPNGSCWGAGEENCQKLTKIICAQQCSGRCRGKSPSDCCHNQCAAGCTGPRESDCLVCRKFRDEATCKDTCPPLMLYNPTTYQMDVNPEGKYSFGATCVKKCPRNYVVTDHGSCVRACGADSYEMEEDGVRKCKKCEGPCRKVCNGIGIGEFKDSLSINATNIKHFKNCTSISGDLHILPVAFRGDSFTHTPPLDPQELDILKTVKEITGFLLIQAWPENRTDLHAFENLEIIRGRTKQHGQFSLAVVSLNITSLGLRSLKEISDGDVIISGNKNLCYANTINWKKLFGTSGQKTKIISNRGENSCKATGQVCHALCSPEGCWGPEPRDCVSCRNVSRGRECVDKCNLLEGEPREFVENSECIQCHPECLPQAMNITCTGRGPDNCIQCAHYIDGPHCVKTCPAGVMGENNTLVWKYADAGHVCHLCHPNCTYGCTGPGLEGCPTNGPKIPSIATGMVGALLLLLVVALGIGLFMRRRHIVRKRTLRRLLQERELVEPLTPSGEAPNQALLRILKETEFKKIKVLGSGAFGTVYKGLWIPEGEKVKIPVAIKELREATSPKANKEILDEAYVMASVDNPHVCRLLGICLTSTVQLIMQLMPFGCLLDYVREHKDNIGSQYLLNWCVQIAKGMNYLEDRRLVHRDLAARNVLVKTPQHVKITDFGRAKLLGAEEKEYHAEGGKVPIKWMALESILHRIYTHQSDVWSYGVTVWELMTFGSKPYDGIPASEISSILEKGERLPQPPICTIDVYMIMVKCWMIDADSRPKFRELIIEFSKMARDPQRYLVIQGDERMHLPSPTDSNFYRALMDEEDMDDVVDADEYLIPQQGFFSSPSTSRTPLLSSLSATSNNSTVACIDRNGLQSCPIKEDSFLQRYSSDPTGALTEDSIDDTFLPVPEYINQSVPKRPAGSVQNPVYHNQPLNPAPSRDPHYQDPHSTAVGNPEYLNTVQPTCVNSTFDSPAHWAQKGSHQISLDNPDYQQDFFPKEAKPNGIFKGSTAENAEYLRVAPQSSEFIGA
Description: (§2) The inhibitory activities were low for other serine, threonine, and tyrosine […], except for the EGFR wild type, within the tested concentration range.

ALK mutant L1196M = ALK mutant L1196M (Homo sapiens, UniProt Q9UM73, L1196M); assay: In vitro enzyme inhibition study; type: biochemical; conditions: difference in inhibitory activity within 3 times
Sequence of ALK mutant L1196M (Q9UM73 19-1620 L1196M): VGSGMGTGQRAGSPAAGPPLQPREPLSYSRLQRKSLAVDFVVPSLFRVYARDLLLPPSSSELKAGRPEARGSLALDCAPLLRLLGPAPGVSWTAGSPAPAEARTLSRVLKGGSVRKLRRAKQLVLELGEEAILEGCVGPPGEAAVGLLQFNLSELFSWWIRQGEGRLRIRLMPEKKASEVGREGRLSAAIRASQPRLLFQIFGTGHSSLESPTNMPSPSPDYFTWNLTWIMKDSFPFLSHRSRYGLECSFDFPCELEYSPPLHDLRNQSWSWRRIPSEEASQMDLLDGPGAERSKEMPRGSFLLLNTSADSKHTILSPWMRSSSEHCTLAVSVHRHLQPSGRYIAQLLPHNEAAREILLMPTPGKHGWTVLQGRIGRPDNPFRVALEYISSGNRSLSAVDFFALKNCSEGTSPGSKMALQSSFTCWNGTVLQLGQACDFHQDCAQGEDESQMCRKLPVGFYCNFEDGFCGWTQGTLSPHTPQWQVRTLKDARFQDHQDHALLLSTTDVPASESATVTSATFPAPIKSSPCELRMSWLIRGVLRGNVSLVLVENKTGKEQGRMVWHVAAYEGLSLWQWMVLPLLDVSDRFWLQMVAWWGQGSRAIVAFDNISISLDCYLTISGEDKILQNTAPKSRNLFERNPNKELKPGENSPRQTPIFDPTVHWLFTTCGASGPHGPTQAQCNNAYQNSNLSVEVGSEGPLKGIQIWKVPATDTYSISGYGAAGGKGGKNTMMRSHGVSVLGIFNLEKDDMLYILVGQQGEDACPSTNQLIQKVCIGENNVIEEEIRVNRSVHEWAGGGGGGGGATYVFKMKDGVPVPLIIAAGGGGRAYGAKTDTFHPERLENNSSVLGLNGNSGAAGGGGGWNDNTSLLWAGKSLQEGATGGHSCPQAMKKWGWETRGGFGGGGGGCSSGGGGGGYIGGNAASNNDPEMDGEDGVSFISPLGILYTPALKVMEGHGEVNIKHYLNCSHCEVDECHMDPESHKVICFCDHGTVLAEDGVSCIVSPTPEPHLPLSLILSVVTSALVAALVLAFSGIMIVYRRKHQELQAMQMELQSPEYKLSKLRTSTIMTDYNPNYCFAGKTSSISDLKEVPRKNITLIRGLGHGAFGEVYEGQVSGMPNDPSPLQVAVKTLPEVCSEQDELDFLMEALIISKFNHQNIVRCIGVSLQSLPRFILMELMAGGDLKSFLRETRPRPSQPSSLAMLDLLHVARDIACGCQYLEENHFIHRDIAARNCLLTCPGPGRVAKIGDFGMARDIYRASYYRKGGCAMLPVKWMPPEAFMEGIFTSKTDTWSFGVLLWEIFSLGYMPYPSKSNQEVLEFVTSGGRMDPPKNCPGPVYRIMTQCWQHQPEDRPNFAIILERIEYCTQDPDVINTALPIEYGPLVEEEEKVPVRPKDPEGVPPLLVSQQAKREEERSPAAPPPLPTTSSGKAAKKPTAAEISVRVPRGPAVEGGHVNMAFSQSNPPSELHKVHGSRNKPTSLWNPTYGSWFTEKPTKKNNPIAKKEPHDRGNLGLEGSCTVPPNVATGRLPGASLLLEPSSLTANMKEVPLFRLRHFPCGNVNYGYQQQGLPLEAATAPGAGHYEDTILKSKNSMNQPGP
Description: as §2

ALK mutant C1156Y = ALK mutant C1156Y (Homo sapiens, UniProt Q9UM73, C1156Y); assay: In vitro enzyme inhibition study; type: biochemical; conditions: difference in inhibitory activity within 3 times
Sequence of ALK mutant C1156Y (Q9UM73 19-1620 C1156Y): as the sequence (Q9UM73 19-1620 L1196M) above, with C1138Y, M1178L counted along it
Description: as §2

ALK wild type = ALK wild type (Homo sapiens, UniProt Q9UM73); assay: In vitro enzyme inhibition study; type: biochemical; conditions: difference in inhibitory activity within 3 times
Sequence of ALK wild type (Q9UM73 19-1620): as the sequence (Q9UM73 19-1620 L1196M) above, with M1178L counted along it
Description: as §2

[11] = Sprague-Dawley, rat, SD rats liver microsomes
[12] = beagle, dog, beagles liver microsomes
[13] = cynomolgus monkey, cynomolgus monkeys liver microsomes
[14] = mouse, CD-1 mice liver microsomes
[15] = 0.5 h, oral [14C]WX-0593 8 mg/kg

Which results are given for `COc1cc(N2CCC3(CCN(C)CC3)CC2)ccc1Nc1ncc(Cl)c(Nc2ccccc2P(C)(C)=O)n1` [WX-0593]?
anti-tumor activity ([1]; 1, 2.5 and 5 mg/kg): good anti-tumor activity; mean body weight ([1]; all treatment arms): no significant decrease in mean weight; anti-tumor activity ([2]; 15 mg/kg, 10 mg/kg (D0–D7)/2.5 mg/kg (D8–D27), 5 mg/kg): significant anti-tumor activity; body weight ([2]; all treatment arms): no significant decrease in weight; IC50 (op-kappa): > 10 µM; IC50 [3]: > 111 µM; drug exposure at MTD as multiple of that at the effective dose ([4]; female animals): 13.7 times; drug exposure at MTD as multiple of that at the effective dose ([4]; male animals): 9.5 times; growth inhibition [5]: somewhat inhibits the growth; CLint scaled [6, 11]: < 17.3 mL/min/kg; half-life [6, 11]: > 145 min; CLint scaled [6, 12]: 14.7 mL/min/kg; half-life [6, 12]: 136 min; CLint scaled [6, 13]: < 13 mL/min/kg; half-life [6, 13]: > 145 min; CLint scaled ([6]; human liver microsomes): < 9.5 mL/min/kg; half-life ([6]; human liver microsomes): > 145 min; CLint scaled [6, 14]: 52.3 mL/min/kg; half-life [6, 14]: 105 min; MTD (in vivo): 50 mg/kg; AUC(0-t) (in vivo; female): 50600 ng·h/mL; Cmax (in vivo; female): 4010 ng/mL; AUC(0-t) (in vivo; male): 35000 ng·h/mL; Cmax (in vivo; male): 2180 ng/mL; total radioactivity relative to plasma, adrenal glands ([7]; 0.5 h): 8.76 times; total radioactivity relative to plasma, intestinal wall ([7]; 0.5 h): 28.1 times; total radioactivity relative to plasma, liver ([7]; 0.5 h): 9.96 times; total radioactivity relative to plasma, oesophagus ([7]; 0.5 h): 9.07 times; total radioactivity relative to plasma, stomach wall ([7]; 0.5 h): 18.6 times; mean total radioactivity, adrenal glands [7, 15]: 13334 ng Eq./g; mean total radioactivity, intestinal wall [7, 15]: 42737 ng Eq./g; mean total radioactivity, liver [7, 15]: 15160 ng Eq./g; mean total radioactivity, oesophagus [7, 15]: 13803 ng Eq./g; mean total radioactivity, plasma [7, 15]: 1522 ng Eq./g; mean total radioactivity, stomach wall [7, 15]: 28265 ng Eq./g; total radioactivity, body fat ([7]; 3 h): 1079 ng Eq./g; total radioactivity, plasma ([7]; 3 h): 2062 ng Eq./g; total radioactivity, skeletal muscles ([7]; 3 h): 1417 ng Eq./g; total radioactivity, testis and epididymis ([7]; 3 h): 619 ng Eq./g; total radioactivity, whole blood ([7]; 3 h): 1366 ng Eq./g; total radioactivity, whole brain ([7]; 3 h): 114 ng Eq./g; mean total radioactivity, adrenal glands ([7]; 72 h): 1296 ng Eq./g; mean total radioactivity, intestinal wall ([7]; 72 h): 129 ng Eq./g; mean total radioactivity, kidneys ([7]; 72 h): 438 ng Eq./g; mean total radioactivity, liver ([7]; 72 h): 922 ng Eq./g; mean total radioactivity, lungs ([7]; 72 h): 103 ng Eq./g; mean total radioactivity, lymph nodes ([7]; 72 h): 292 ng Eq./g; mean total radioactivity, spleen ([7]; 72 h): 1883 ng Eq./g; mean total radioactivity, testis and epididymis ([7]; 72 h): 504 ng Eq./g; mean total radioactivity, thymus ([7]; 72 h): 95.8 ng Eq./g; mean total radioactivity, uterus and ovaries ([7]; 72 h): 187 ng Eq./g; Tmax ([8]; both sexes, cynomolgus monkey, plasma, oral gavage 0.5–8 mg/kg): 2 to 3.33 h; half-life ([8]; both sexes, cynomolgus monkey, plasma, oral gavage 0.5–8 mg/kg, read-out: plasma terminal half-life): 197 to 488 min; AUC(0-t) ([8]; both sexes, cynomolgus monkey, plasma, single IV 0.5 mg/kg, read-out: AUC0-24h): 323 ± 91.1 ng·h/mL; Vd ([8]; both sexes, cynomolgus monkey, plasma, single IV 0.5 mg/kg, read-out: apparent volume of distribution (Vdss)): 7.7 ± 1.24 L/kg; MRT inf ([8]; both sexes, cynomolgus monkey, plasma, single IV 0.5 mg/kg, read-out: mean residence time (MRT0-inf)): 5.03 ± 138 h; clearance ([8]; both sexes, cynomolgus monkey, plasma, single IV 0.5 mg/kg, read-out: plasma clearance (CL)): 26.8 ± 6.82 mL/min/kg; half-life ([8]; both sexes, cynomolgus monkey, plasma, single IV 0.5 mg/kg, read-out: plasma elimination half-life T1/2 (converted)): 262 ± 143 min; bioavailability ([8]; both sexes, cynomolgus monkey, plasma, single oral 0.5 mg/kg): 37.5%; bioavailability ([8]; both sexes, cynomolgus monkey, plasma, single oral 8 mg/kg): 74.7%; drug accumulation ([8]; oral 2 mg/kg, 7 consecutive days): no significant drug accumulation; absolute bioavailability ([8]; single oral 2 mg/kg): 46.6%; dose excreted in bile [9]: 30.56%; dose excreted in feces [9]: 32.04%; dose excreted in urine [9]: 30.73%; dose in cage rinses and washes [9]: 1.43%; mean radioactivity recovery rate [9]: 94.75%; growth inhibition (Ba/F3 (EML4-ALK-L1196M)): significantly inhibits the growth; MTD as multiple of the effective dose ([10]; female animals): 10 times; MTD as multiple of the effective dose ([10]; males): 40 times; inhibitory activity compared with brigatinib (EGFR L858R/T790M): comparable with the activity of brigatinib; also recorded: comparable to brigatinib; inhibitory activity compared with brigatinib (ALK mutant L1196M): comparable with the activity of brigatinib; also recorded: comparable to brigatinib; inhibitory activity compared with brigatinib (ALK mutant C1156Y): comparable with the activity of brigatinib; also recorded: comparable to brigatinib; inhibitory activity compared with brigatinib (ALK wild type): comparable with the activity of brigatinib; also recorded: comparable to brigatinib
